Laboratory results as given in patent US12414911B2, “Topical compositions and methods of use” (priority 2012, dated 2025).

How the values were obtained:
[1] = test system: LTB4 release from macrophages; test: Inhibition of LTB4 release from stimulated macrophage cell line (radioimmunoassay); assay type: cell-based; details: NDGA 25 uM, positive control
Experimental: MFSO and the MFB skin extract have Anti-inflammatory Activity.
MFSO and the MFB skin extract were dissolved in DMSO and added to cell culture medium at a stock concentration for use in these in vitro experiments. The ability of MFSO to function as an inhibitor of LTB4 release was evaluated using a macrophage cell line followed by the addition of calcium iontophore for stimulation of LTB4 and the use of a radioimmunoassay (Amersham) for LTB4 detection as previously described (Garrido G, González D, Lemus Y, Garcia D, Lodeiro L, Quintero G, Delporte C, Núñez-Sellés A J, Delgado R. In vivo and in vitro anti-inflammatory activity of Mangifera indica L. extract (VIMANG). Pharmacol Res. 2004 August; 50 (2):143-9). NDGA (25 uM) is a known positive control that inhibits LTB4 release and the vehicle control consisted of DMSO in culture medium with no MFSO.

[2] = UVB SPF activity of formulations; assay type: in vivo, human; details: Octinoxate 3% alone
Experimental: Formulations containing MFSO and octyl methoxycinnamate (Octinoxate), alone and in combination, were prepared without changing the vehicle base and tested for UVB SPF activity (2 subjects).
To evaluate for SPF boosting effects of MFSO, a concentration of Octinoxate was selected that gave SPF values that would allow for its efficient absorption and avoid the saturation effect that occurs when higher concentrations of sunscreens are used.

Staph Aureus = test: Agar-solid Diffusion Method, inhibition zone; assay type: cell-based; details: Staphylococcus aureus
P. Acnes = test: Agar-solid Diffusion Method, inhibition zone; assay type: cell-based; details: Cutibacterium acnes
E. Coli = test: Agar-solid Diffusion Method, inhibition zone; assay type: cell-based; details: Escherichia coli
C. Albicans = test: Agar-solid Diffusion Method, inhibition zone; assay type: cell-based; details: Candida albicans
T. Rubrum = test: Agar-solid Diffusion Method, inhibition zone; assay type: cell-based; details: Trichophyton rubrum
Normal human spermatozoa = test: Spermicidal activity (Sander-Cramer assay); assay type: cell-based; parameters: key: +: Mobile; −: Immobile; ±: 90% lost mobility; details: 1% concentration
Source text: Normal human spermatozoa were used to assess the spermicidal activity (Sander-Cramer assay) of MFSO as described (Benhong Z., Zhenpeng Q, Gang L, Chun L, Zhang J. Spermicidal and antigonococcal effects of tannins from pomegranate rind. Journal of Medicinal Plants Research 2012 February; 6 (7); 1334-1339). Nonoxynol-9 was used as a positive reference standard and semen added to physiological saline was used as the negative control. Semen samples were donated by 3 healthy fertile men. The minimum MFSO concentration that caused 100% immobilization of sperm within 20 seconds was considered to be the minimal effective concentration (MEC).

CC(Cc1ccc(O)c(O)c1)C(C)Cc1ccc(O)c(O)c1 (stereo not shown) [NDGA]
inhibition of LTB4 release [1]: 98%

CCCCC(CC)COC(=O)C=Cc1ccc(OC)cc1 (stereo not shown) [Octinoxate, octyl methoxycinnamate]
SPF [2]: 3

O=C(O)c1cn(C2CC2)c2cc(N3CCNCC3)c(F)cc2c1=O [Ciprofloxacin]
zone of inhibition at 10 µM (Staph Aureus; 10 uM): 25 mm | zone of inhibition at 10 µM (P. Acnes; 10 uM): 22 mm | zone of inhibition at 10 µM (E. Coli; 10 uM): 25 mm | zone of inhibition at 10 µM (C. Albicans; 10 uM): 0 mm | zone of inhibition at 10 µM (T. Rubrum; 10 uM): 0 mm

O=C(N[C@H](CO)[C@H](O)c1ccc([N+](=O)[O-])cc1)C(Cl)Cl [Chloramphenicol]
zone of inhibition at 30 µM (Staph Aureus; 30 uM): 25 mm | zone of inhibition at 30 µM (P. Acnes; 30 uM): 25 mm | zone of inhibition at 30 µM (E. Coli; 30 uM): 0 mm | zone of inhibition at 30 µM (C. Albicans; 30 uM): 0 mm | zone of inhibition at 30 µM (T. Rubrum; 30 uM): 0 mm

CC(=O)N1CCN(c2ccc(OCC3COC(Cn4ccnc4)(c4ccc(Cl)cc4Cl)O3)cc2)CC1 (stereo not shown) [Ketoconazole]
zone of inhibition at 1000 µM (Staph Aureus; 1 mM): 0 mm | zone of inhibition at 1000 µM (P. Acnes; 1 mM): 0 mm | zone of inhibition at 1000 µM (E. Coli; read-out: Inhibition Zone): 0 mm | zone of inhibition at 1000 µM (C. Albicans; 1 mM): 25 mm | zone of inhibition at 1000 µM (T. Rubrum; 1 mM): 25 mm

Nonoxynol-9
Sperm Motility (Normal human spermatozoa; action time 20 seconds): − | Sperm Motility (Normal human spermatozoa; action time 60 seconds): −
